Measured values reported in the supplement of paper PMC10307832.

Tests used:
Test in all cases: relative viability (nuclei count vs DMSO), 5 days (fraction); higher = more cells survive
[1] = compound: COc1cc([C@@H]2c3cc4c(cc3[C@@H](O[C@@H]3O[C@@H]5CO[C@@H](C)O[C@H]5[C@H](O)[C@H]3O)[C@H]3COC(=O)[C@H]23)OCO4)cc(OC)c1O [Etoposide] + CC(C)C[C@H](NC(=O)[C@H](Cc1ccccc1)NC(=O)c1cnccn1)B(O)O [Bortezomib] (partner 0.002 µM)
How it was run: (§1)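 Relative viability equals treated-well nuclei counts divided by vehicle-well nuclei counts. Counts came from 4× images of lung cancer cell lines grown in 1536-well plates for 5 days after pin-tool dosing on the day after seeding. Dosing used one drug alone or a fixed anchor-drug dose plus five library-drug doses (not always all listed) in √10 steps, and values are medians of duplicate plates.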

[2] = compound: CC1=C(N=C(N=C1N)[C@H](CC(=O)N)NC[C@@H](C(=O)N)N)C(=O)N[C@@H]([C@H](C2=CN=CN2)OC3C(C(C(C(O3)CO)O)O)OC4C(C(C(C(O4)CO)O)OC(=O)N)O)C(=O)N[C@H](C)[C@H]([C@H](C)C(=O)N[C@@H]([C@@H](C)O)C(=O)NCCC5=NC(=CS5)C6=NC(=CS6)C(=O)NCCC[S+](C)C)O [Bleomycin] + Cc1nc(NC(=O)N2CCC[C@H]2C(N)=O)sc1-c1ccnc(C(C)(C)C(F)(F)F)c1 [Alpelisib] (partner 2 µM); details: main component drawn
How it was run: as §1

[3] = compound: CC1=C(N=C(N=C1N)[C@H](CC(=O)N)NC[C@@H](C(=O)N)N)C(=O)N[C@@H]([C@H](C2=CN=CN2)OC3C(C(C(C(O3)CO)O)O)OC4C(C(C(C(O4)CO)O)OC(=O)N)O)C(=O)N[C@H](C)[C@H]([C@H](C)C(=O)N[C@@H]([C@@H](C)O)C(=O)NCCC5=NC(=CS5)C6=NC(=CS6)C(=O)NCCC[S+](C)C)O [Bleomycin]; details: main component drawn
How it was run: (§2)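 Five library-drug doses spaced by √10 were pinned onto vehicle-anchored 1536-well plates of lung cancer cell lines that had been kept overnight at 37 °C. Cells went 5 days without medium change, then were fixed, permeabilised and Hoechst-stained together, imaged at 4× and counted by MetaXpress. Viability is the ratio of treated-well to vehicle-well nuclei, taken as a median over plates. Plates required control CV below 25% and at least one doubling.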

[4] = compound: COc1cc([C@@H]2c3cc4c(cc3[C@@H](O[C@@H]3O[C@@H]5CO[C@@H](C)O[C@H]5[C@H](O)[C@H]3O)[C@H]3COC(=O)[C@H]23)OCO4)cc(OC)c1O [Etoposide]
How it was run: as §2

Row | Cell Line | relative viability ([1]; first compound 0.01 µM) | relative viability ([1]; first compound 0.03162 µM) | relative viability ([1]; first compound 0.1 µM) | relative viability ([1]; first compound 0.3162 µM) | relative viability ([1]; first compound 1 µM) | relative viability ([2]; first compound 0.01 µM) | relative viability ([2]; first compound 0.03162 µM) | relative viability ([2]; first compound 0.1 µM) | relative viability ([2]; first compound 0.3162 µM) | relative viability ([2]; first compound 1 µM) | relative viability ([3]; 0.01 µM) | relative viability ([3]; 0.03162 µM) | relative viability ([3]; 0.1 µM) | relative viability ([3]; 0.3162 µM) | relative viability ([3]; 1 µM) | relative viability ([4]; 0.01 µM) | relative viability ([4]; 0.03162 µM) | relative viability ([4]; 0.1 µM) | relative viability ([4]; 0.3162 µM) | relative viability ([4]; 1 µM)
1 | NCI-H1975 | 0.402 | 0.386 | 0.411 | 0.322 | 0.177 | 0.607 | 0.616 | 0.555 | 0.254 | 0.232 | 0.746 | 0.714 | 0.589 | 0.289 | 0.226 | 0.842 | 1.07 | 0.817 | 0.809 | 0.402
2 | CAL-12T | 1.07 | 1.08 | 0.846 | 0.648 | 0.385 | 0.666 | 0.883 | 0.433 | 0.235 | 0.244 | 0.755 | 0.824 | 0.545 | 0.273 | 0.202 | 0.946 | 1.04 | 0.797 | 0.726 | 0.333
3 | NCI-H1623 |  |  |  |  |  |  |  |  |  |  | 0.84 | 0.936 | 0.807 | 0.466 | 0.469 | 0.859 | 0.907 | 0.687 | 0.818 | 0.303
4 | HCC-44 | 1.01 | 0.905 | 1.02 | 0.781 | 0.418 | 0.45 | 0.27 | 0.224 | 0.212 | 0.162 | 0.587 | 0.445 | 0.361 | 0.226 | 0.209 | 1.06 | 1.03 | 1.02 | 0.899 | 0.594
5 | EKVX | 1 | 1.18 | 0.4 | 0.419 | 0.372 | 0.894 | 0.738 | 0.683 | 0.345 | 0.37 | 0.928 | 0.898 | 0.797 | 0.374 | 0.321 | 0.998 | 1.01 | 0.637 | 0.741 | 0.377
6 | NCI-H1944 |  |  |  |  |  | 0.627 | 0.518 | 0.506 | 0.288 | 0.179 | 0.53 | 0.481 | 0.397 | 0.232 | 0.184 | 0.973 | 1.13 | 0.729 | 0.522 | 0.273
7 | NCI-H358 |  |  |  |  |  | 0.889 | 0.799 | 0.712 | 0.481 | 0.349 | 0.879 | 0.944 | 0.829 | 0.445 | 0.428 | 0.985 | 0.982 | 0.564 | 0.302 | 0.17
8 | NCI-H1793 |  |  |  |  |  | 0.695 | 0.783 | 0.612 | 0.171 | 0.176 | 0.817 | 0.772 | 0.754 | 0.293 | 0.226 | 0.813 | 1.12 |  | 0.758 | 0.334
9 | ChaGo-K-1 | 1.16 | 0.94 | 0.679 | 0.337 | 0.282 |  |  |  |  |  | 0.832 | 0.895 | 0.846 | 0.58 | 0.387 | 1.04 | 1.06 | 0.858 | 0.481 | 0.308
10 | NCI-H522 |  |  |  |  |  |  |  |  |  |  | 0.833 | 0.79 | 0.666 | 0.432 | 0.345 | 0.977 | 1.04 | 0.811 | 0.928 | 0.743
11 | NCI-H1650 | 0.201 | 0.204 | 0.208 | 0.181 | 0.185 |  |  |  |  |  | 0.584 | 0.394 | 0.243 | 0.179 | 0.195 | 0.897 | 0.903 | 0.739 | 0.38 | 0.161
12 | NCI-H1648 |  |  |  |  |  |  |  |  |  |  | 0.71 | 0.696 | 0.773 | 0.608 | 0.68 |  | 1.01 | 0.783 | 0.674 | 0.516
13 | SK-MES-1 |  |  |  |  |  | 0.731 | 0.531 | 0.59 | 0.315 | 0.185 | 0.861 | 0.885 | 0.77 | 0.371 | 0.262 | 0.978 | 1.06 | 0.9 | 0.587 | 0.258
14 | NCI-H2342 |  |  |  |  |  |  |  |  |  |  | 1.02 | 0.999 | 0.968 | 0.759 | 0.653 | 1.04 | 1.03 | 0.533 | 0.38 | 0.34
15 | SW 900 |  |  |  |  |  |  |  |  |  |  | 0.697 | 0.816 | 0.6 | 0.21 | 0.205 | 0.778 | 0.809 | 0.729 | 0.524 | 0.224
16 | LK-2 |  |  |  |  |  | 0.579 | 0.505 | 0.478 | 0.282 | 0.251 | 0.686 | 0.575 | 0.485 | 0.28 | 0.277 | 0.979 | 1.31 | 0.684 | 0.663 | 0.268
17 | NCI-H1395 |  |  |  |  |  | 0.817 | 0.812 | 0.669 | 0.9 | 0.382 | 0.753 | 0.833 | 0.603 | 0.476 | 0.398 | 0.872 | 0.961 | 0.804 | 0.781 | 0.658
18 | A549 |  |  |  |  |  | 0.593 | 0.44 | 0.314 | 0.0966 | 0.0714 | 0.843 | 0.789 | 0.608 | 0.132 | 0.0828 | 0.875 | 0.947 | 0.476 | 0.281 | 0.131
19 | NCI-H2170 |  |  |  |  |  | 0.775 | 0.815 | 0.792 | 0.58 | 0.552 | 0.939 | 0.934 | 0.86 | 0.703 | 0.66 | 0.938 | 0.985 |  | 0.986 | 0.834
